Measured values published in paper PMC7915902, “Preclinical Evaluation of [^18F]FACH in Healthy Mice and Piglets: An ^18F-Labeled Ligand for Imaging of Monocarboxylate Transporters with PET” (International Journal of Molecular Sciences, 2021).
Values joined by “and” are separate entries in the source; they are usually repeats but may differ in a detail not shown here. Equal entries are not always repeated.

What was measured:
[1] = tested on: MCTs; assay: Compartmental kinetic modelling of PET data in mice; type: in vivo, mouse; details: for K1 / VT / k2: 1-TCM; for K1 (representative 1-TCM curve fit) / k2 (representative 1-TCM curve fit): control study, Figure S12
Protocol: Table 4 includes the results of 1-tissue-compartment kinetic modelling (1-TCM) of [^18F]FACH in the kidney cortex and the liver of the control and pre-treated mouse groups (α-CCA-Na and reference compound). […] The BPND was estimated as the ratio of [VT(control)/VT(pre-treatment)] − 1.
Kinetic analysis of reconstructed datasets was performed with PMOD software. First, image derived arterial input functions (IDIFs) were obtained from the left ventricle in mice and from an artery close to the kidney in piglet studies. IDIFs were corrected for partial volume effects, plasma fraction from hematocrit values (individually determined for each piglet directly before PET imaging; for mice set to 0.51 according to CD-1 Mouse Hematology sheet from Charles River Laboratories, 2011) and radio-metabolites (measured for piglets, and set to zero for mice). Tri-exponential metabolite-corrected fitted input functions were used for one and two tissue compartment modelling (1-TCM/2-TCM) of time activity curves (TACs) in tissue volumes of interest (VOIs). For both species the specific blood volume was set to 0.15 mL g^−1 in the kidney cortex and 0.128 mL g^−1 in the liver, according to published values.

[2] = tested on: MCTs; assay: Ex vivo biodistribution in mice; parameters: species or system mouse; details: for SUV adipose tissue / SUV adrenal gland / SUV bladder / SUV blood / SUV brain / SUV caecum / SUV femur / SUV gall bladder / SUV heart / SUV kidney / SUV large intestine / SUV liver / SUV lung / SUV ovar / SUV pancreas / SUV plasma / SUV small intestine / SUV spleen / SUV stomach / SUV urine: ex vivo, control
Protocol: Adult mice (28 to 39 g bodyweight) under isoflurane anesthesia were pre-treated by i.v. injection of saline as control (n = 3 for each time point) or 25 mg/kg α-CCA-Na (n = 3 for each time point) ten min before i.v. injection of [^18F]FACH (0.53 ± 0.06 MBq, 0.14 to 0.29 pmol/g bodyweight). The animals were euthanized by anesthesia overdose and cervical dislocation at five, 15 and 30 min after i.v. [^18F]FACH administration, and the radioactivity concentrations in harvested tissues were measured by a gamma counter (PerkinElmer), decay-corrected and normalized to the administered dose and tissue weight, and expressed as SUV in their harvested tissues. The red blood cell to plasma ratio was calculated as described by Bower et al.

[3] = target: MCTs; assay: Autoradiographic saturation binding (homologous displacement) in mouse kidney cryosections
Protocol: Cryosections from the mouse kidney (10 µm) were cut on a microtome (Microm HM560, Thermo Scientific Microm, Fisher Scientific GmbH, Schwerte, Germany), mounted on glass slides (SuperFrost, Thermo Scientific Menzel, Fisher Scientific GmbH), dried for two hours at room temperature, and stored at −25 °C. Before the binding experiment, the tissue slices were dried under a stream of cold air, pre-incubated with PBS (pH 7.4) for 15 min at room temperature and dried again before incubation with PBS containing [^18F]FACH (1.2 nM) without (total binding) and with different concentrations of FACH-Na (10 µM–0.1 nM; homologous competition) for 60 min. Specific binding to MCTs of [^18F]FACH in cryosections of mouse kidney was determined after co-incubation of 1 nM [^18F]FACH with vehicle or 300 nM α-CCa-Na or 300 nM reference compound (homologous competition).
The incubation was terminated by washing with ice-cold buffer (50 mM TRIS-HCl, pH 7.4) twice for two minutes followed by dipping in ice-cold demineralized water for 5 s and drying under a stream of cold air. The dried sections along with activity standards (1 µL aliquots of different dilutions of the incubation solution dried on microscopic slides) were exposed to phosphor imaging plates (FujiFilm Co., Tokyo, Japan) transferred after 120 min to a phosphor imager (HD-CR 35 Bio; Dürr NDT GmbH & Co. KG, Bietigheim-Bissingen, Germany). Regions of interest (ROIs) were drawn manually or automatically on the tissue slices or standard spots, and the pixelwise results converted to Bq/mg wet weight. Non-linear regression analysis was performed with GraphPad Prism (v.3.0 GraphPad Software, San Diego, CA, USA). KD and Bmax values were calculated by the simplified Cheng and Prusoff equation (http://www3.uah.es/farmamol/Public/GraphPad/radiolig.htm, accessed on 5 February 2021):(1) KD=Ki=IC50−Radioligand (M) (2) Bmax=Top−Bottom/Radioligand (M)/(KD+Radioligand (M))

For `CCCN(CCC[18F])c1ccc(/C=C(\C#N)C(=O)O)c(OC)c1` [[^18F]FACH, (E)-2-cyano-3-{4-[(3-[^18F]fluoropropyl)(propyl)amino]-2-methoxyphenyl}acrylic acid], the K1 ([1]; kidney cortex, control) was 0.13 ± 0.06 mL/g/min, the VT ([1]; kidney cortex, control) was 8.60 ± 4.55 mL/g and the k2 ([1]; kidney cortex, control) was 0.02 ± 0.01 min⁻¹. The “K1 (2-TCM)” value ([1]; kidney cortex, 2-TCM, control) was 0.28±0.24 ml/ccm/min, the “VND (2-TCM)” value ([1]; kidney cortex, 2-TCM, control) was 1.77±2.49 ml/ccm and the “k2 (2-TCM)” value ([1]; kidney cortex, 2-TCM, control) was 1.54 ± 2.43 min⁻¹. For the same molecule, the “k3 (2-TCM)” value ([1]; kidney cortex, 2-TCM, control) was 0.77 ± 0.78 min⁻¹, the “k4 (2-TCM)” value ([1]; kidney cortex, 2-TCM, control) was 0.02 ± 0.02 min⁻¹ and the “K1 (representative 1-TCM curve fit)” value ([1]; kidney cortex) was 0.16 mL/g/min. The “k2 (representative 1-TCM curve fit)” value ([1]; kidney cortex) was 0.04 min⁻¹, the K1 ([1]; liver, control) was 0.49 ± 0.24 mL/g/min and the VT ([1]; liver, control) was 6.47 ± 2.49 mL/g. For the same molecule, the k2 ([1]; liver, control) was 0.08 ± 0.02 min⁻¹, the BPND ([1]; liver, (VT(control)/VT(pre-treated)) − 1) was 0.04 and the “K1 (representative 1-TCM curve fit)” value ([1]; liver) was 0.40 mL/g/min. For the same molecule, the “k2 (representative 1-TCM curve fit)” value ([1]; liver) was 0.09 min⁻¹, the “red blood cell to plasma ratio” value ([2]; biodistribution studies) was under 0.1 and the SUV adipose tissue ([2]; 5 min p.i.) was 0.12. For the same molecule, the SUV adrenal gland ([2]; 5 min p.i.) was 0.80, the SUV bladder ([2]; 5 min p.i.) was 0.17 and the SUV blood ([2]; 5 min p.i.) was 1.85 ± 0.29 and 1.85. It also gave an SUV brain ([2]; 5 min p.i.) of 0.08, an SUV caecum ([2]; 5 min p.i.) of 0.18 and an SUV femur ([2]; 5 min p.i.) of 0.17. The SUV gall bladder ([2]; 5 min p.i.) was 4.61, the SUV heart ([2]; 5 min p.i.) was 0.74 and the SUV kidney ([2]; 5 min p.i.) was 7.97. The SUV large intestine ([2]; 5 min p.i.) was 0.24, the SUV liver ([2]; 5 min p.i.) was 9.65 and the SUV lung ([2]; 5 min p.i.) was 0.89 ± 0.12 and 0.89. The SUV ovar ([2]; 5 min p.i.) was 0.38, the SUV pancreas ([2]; 5 min p.i.) was 0.51 and the SUV plasma ([2]; 5 min p.i.) was 3.77 ± 0.57 and 3.77. It also gave an SUV small intestine ([2]; 5 min p.i.) of 0.56, an SUV spleen ([2]; 5 min p.i.) of 0.37 and an SUV stomach ([2]; 5 min p.i.) of 0.16. The SUV urine ([2]; 5 min p.i.) was 0.82, the SUV adipose tissue ([2]; 15 min p.i.) was 0.18 and the SUV adrenal gland ([2]; 15 min p.i.) was 0.94. For the same molecule, the SUV bladder ([2]; 15 min p.i.) was 0.35, the SUV blood ([2]; 15 min p.i.) was 0.91 and the SUV brain ([2]; 15 min p.i.) was 0.04. The SUV caecum ([2]; 15 min p.i.) was 0.15, the SUV femur ([2]; 15 min p.i.) was 0.12 and the SUV gall bladder ([2]; 15 min p.i.) was 5.36. The SUV heart ([2]; 15 min p.i.) was 0.53, the SUV kidney ([2]; 15 min p.i.) was 12.81 and the SUV large intestine ([2]; 15 min p.i.) was 0.19. It also gave an SUV liver ([2]; 15 min p.i.) of 10.65, an SUV lung ([2]; 15 min p.i.) of 0.59 and an SUV ovar ([2]; 15 min p.i.) of 0.33. It also gave an SUV pancreas ([2]; 15 min p.i.) of 0.44, an SUV plasma ([2]; 15 min p.i.) of 1.76 and an SUV small intestine ([2]; 15 min p.i.) of 0.66. It also gave an SUV spleen ([2]; 15 min p.i.) of 0.21, an SUV stomach ([2]; 15 min p.i.) of 0.13 and an SUV urine ([2]; 15 min p.i.) of 4.32. The SUV adipose tissue ([2]; 30 min p.i.) was 0.15, the SUV adrenal gland ([2]; 30 min p.i.) was 0.51 and the SUV bladder ([2]; 30 min p.i.) was 0.31. The SUV blood ([2]; 30 min p.i.) was 0.82 ± 0.05 and 0.82, the SUV brain ([2]; 30 min p.i.) was 0.04 and the SUV caecum ([2]; 30 min p.i.) was 0.19. The SUV femur ([2]; 30 min p.i.) was 0.15, the SUV gall bladder ([2]; 30 min p.i.) was 10.96 and the SUV heart ([2]; 30 min p.i.) was 0.58. The SUV kidney ([2]; 30 min p.i.) was 15.97 ± 1.07 and 15.97, the SUV large intestine ([2]; 30 min p.i.) was 0.26 and the SUV liver ([2]; 30 min p.i.) was 8.48. For the same molecule, the SUV lung ([2]; 30 min p.i.) was 0.52 ± 0.02 and 0.52, the SUV ovar ([2]; 30 min p.i.) was 0.32 and the SUV pancreas ([2]; 30 min p.i.) was 0.38. The SUV plasma ([2]; 30 min p.i.) was 1.69 ± 0.17 and 1.69, the SUV small intestine ([2]; 30 min p.i.) was 1.11 and the SUV spleen ([2]; 30 min p.i.) was 0.22. For the same molecule, the SUV stomach ([2]; 30 min p.i.) was 0.20, the SUV urine ([2]; 30 min p.i.) was 4.57 and the Kd ([3]; mouse kidney cortex (Co) cryosections) was 118 ± 12 nM. For the same molecule, the Kd ([3]; mouse kidney inner medulla (IM) cryosections) was 265 nM and the Kd ([3]; mouse kidney outer medulla (OM) cryosections) was 212 nM.
